Laboratory results: ChEMBL document CHEMBL4321836, “Discovery of BAY-298 and BAY-899: Tetrahydro-1,6-naphthyridine-Based, Potent, and Selective Antagonists of the Luteinizing Hormone Receptor Which Reduce Sex Hormone Levels in Vivo” (J Med Chem, 2019)
In brackets after ≈: the same amount, converted by molar mass.

How the values were obtained:
[1] = biological target: Lutropin-choriogonadotropic hormone receptor (Homo sapiens, UniProt P22888); experiment: Antagonist activity at human luteinizing hormone receptor assessed as reduction in agonist-induced cAMP production preincubated for 20 mins followed by agonist solution addition after 60 mins by cell based TR-FRET assay; type: functional
Sequence of Lutropin-choriogonadotropic hormone receptor (P22888 whole entry): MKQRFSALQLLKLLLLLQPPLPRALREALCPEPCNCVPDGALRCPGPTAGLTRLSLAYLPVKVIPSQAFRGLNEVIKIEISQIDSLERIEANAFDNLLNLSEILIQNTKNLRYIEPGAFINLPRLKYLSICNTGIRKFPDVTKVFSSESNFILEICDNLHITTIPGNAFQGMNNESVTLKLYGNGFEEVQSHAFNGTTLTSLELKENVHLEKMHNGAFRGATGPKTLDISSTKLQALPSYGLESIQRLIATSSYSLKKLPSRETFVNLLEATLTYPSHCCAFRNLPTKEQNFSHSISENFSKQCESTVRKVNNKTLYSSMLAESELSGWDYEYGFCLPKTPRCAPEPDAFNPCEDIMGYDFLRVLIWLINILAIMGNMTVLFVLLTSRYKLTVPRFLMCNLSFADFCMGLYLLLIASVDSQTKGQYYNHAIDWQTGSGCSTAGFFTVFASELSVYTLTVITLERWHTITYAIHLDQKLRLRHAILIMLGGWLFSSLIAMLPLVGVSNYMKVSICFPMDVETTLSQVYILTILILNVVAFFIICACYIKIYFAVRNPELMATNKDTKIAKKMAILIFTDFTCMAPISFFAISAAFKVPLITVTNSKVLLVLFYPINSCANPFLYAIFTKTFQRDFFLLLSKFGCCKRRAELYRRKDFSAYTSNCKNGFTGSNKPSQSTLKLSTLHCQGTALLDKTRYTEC

[2] = Maximum oral bioavailability in human liver microsomes based well stirred liver model at 1 uM measured after 2 to 60 mins in presence of glucose-6-phosphate by LC-MS/MS analysis; type: ADME, Microsome; conditions: read-out: Fmax
[3] = Protein binding in human plasma assessed as unbound fraction; type: ADME, cell-free
[4] = Aqueous solubility of the compound at pH 6.5 incubated for 24 hrs under shaking condition by HPLC-MS/MS analysis; type: physicochemical; conditions: buffer
[5] = Efflux ratio of apparent permeability from basolateral to apical over apical to basolateral side in human Caco2 cells at 2 uM after 2 hrs by LC-MS/MS analysis; type: ADME, cell-based; conditions: Caco-2
[6] = Maximum oral bioavailability in rat liver microsomes based well stirred liver model at 1 uM measured after 2 to 60 mins in presence of glucose-6-phosphate by LC-MS/MS analysis; type: ADME, Microsome; conditions: read-out: Fmax
[7] = biological target: Cytochrome P450 2C9 (Homo sapiens, UniProt P11712); experiment: Inhibition of CYP2C9 in human liver microsomes using diclofenac as substrate by LC-MS/MS analysis; type: ADME
Sequence of Cytochrome P450 2C9 (P11712 whole entry): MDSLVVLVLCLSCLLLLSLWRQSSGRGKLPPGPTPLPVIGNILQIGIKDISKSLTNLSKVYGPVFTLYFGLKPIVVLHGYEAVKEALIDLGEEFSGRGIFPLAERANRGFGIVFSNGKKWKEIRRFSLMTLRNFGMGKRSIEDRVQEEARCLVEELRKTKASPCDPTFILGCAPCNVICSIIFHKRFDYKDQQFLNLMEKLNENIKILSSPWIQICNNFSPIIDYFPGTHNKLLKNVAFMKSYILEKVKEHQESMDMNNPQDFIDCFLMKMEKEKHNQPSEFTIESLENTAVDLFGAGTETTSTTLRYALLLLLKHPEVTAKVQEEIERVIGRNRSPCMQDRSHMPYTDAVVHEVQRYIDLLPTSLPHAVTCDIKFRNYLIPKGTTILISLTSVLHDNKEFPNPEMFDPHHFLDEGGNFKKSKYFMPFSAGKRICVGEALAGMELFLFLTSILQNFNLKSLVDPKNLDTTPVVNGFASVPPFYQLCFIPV

[8] = biological target: Cytochrome P450 3A4 (Homo sapiens, UniProt P08684); experiment: Inhibition of CYP3A4 in human liver microsomes using midazolam as substrate treated prior to substrate addition by LC-MS/MS analysis; type: ADME
Sequence of Cytochrome P450 3A4 (P08684 whole entry): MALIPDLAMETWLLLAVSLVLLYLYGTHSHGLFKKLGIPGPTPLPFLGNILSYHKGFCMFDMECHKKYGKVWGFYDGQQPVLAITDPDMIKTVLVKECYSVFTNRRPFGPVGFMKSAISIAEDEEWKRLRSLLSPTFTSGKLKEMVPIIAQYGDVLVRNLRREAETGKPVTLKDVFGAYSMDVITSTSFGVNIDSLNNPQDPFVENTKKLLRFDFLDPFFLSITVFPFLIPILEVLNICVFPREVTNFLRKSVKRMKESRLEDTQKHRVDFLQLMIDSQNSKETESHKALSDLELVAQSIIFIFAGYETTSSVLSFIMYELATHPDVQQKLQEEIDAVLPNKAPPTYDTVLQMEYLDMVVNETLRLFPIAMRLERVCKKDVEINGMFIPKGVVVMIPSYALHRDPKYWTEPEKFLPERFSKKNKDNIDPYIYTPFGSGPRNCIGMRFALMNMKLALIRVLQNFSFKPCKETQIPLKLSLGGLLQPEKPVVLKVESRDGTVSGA

[9] = Dose normalized AUC in Wistar rat at 0.5 mg/kg, iv after 2 to 72 hrs by LC-MS/MS analysis; type: ADME, organism-based; conditions: in vivo
[10] = Half life in Wistar rat at 0.5 mg/kg, iv after 2 to 72 hrs by LC-MS/MS analysis; type: ADME, organism-based; conditions: in vivo
[11] = Tmax in Wistar rat at 2 mg/kg, po after 8 to 72 hrs by LC-MS/MS analysis; type: ADME, organism-based; conditions: in vivo
[12] = Half life in Wistar rat at 2 mg/kg, po after 8 to 72 hrs by LC-MS/MS analysis; type: ADME, organism-based; conditions: in vivo
[13] = biological target: T1, Alpha-1A adrenergic receptor (Homo sapiens) (UniProt P35348); experiment: Agonist activity at human alpha1A adrenergic receptor expressed in CHO-K1 cells at 10 uM by fluorimetric method relative to control; type: cell-based
T1 sequence (whole entry): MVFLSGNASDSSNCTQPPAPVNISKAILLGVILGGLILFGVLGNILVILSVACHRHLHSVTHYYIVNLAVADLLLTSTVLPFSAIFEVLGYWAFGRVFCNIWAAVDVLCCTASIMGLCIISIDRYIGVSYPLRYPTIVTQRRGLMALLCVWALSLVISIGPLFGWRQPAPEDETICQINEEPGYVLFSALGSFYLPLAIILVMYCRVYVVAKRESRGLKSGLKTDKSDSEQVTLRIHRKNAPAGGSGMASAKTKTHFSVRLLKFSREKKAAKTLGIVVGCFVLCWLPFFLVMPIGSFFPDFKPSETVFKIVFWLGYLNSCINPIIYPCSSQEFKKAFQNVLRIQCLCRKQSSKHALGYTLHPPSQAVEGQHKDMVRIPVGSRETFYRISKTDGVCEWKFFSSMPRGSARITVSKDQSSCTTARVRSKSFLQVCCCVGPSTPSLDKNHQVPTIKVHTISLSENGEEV

[14] = biological target: T1, Alpha-1A adrenergic receptor (Homo sapiens); experiment: Antagonist activity at human alpha1A adrenergic receptor expressed in CHO-K1 cells at 10 uM by fluorimetric method relative to control; type: cell-based; set-up: scale not given: the % may be the effect or the level left
[15] = biological target: T2, Alpha-2A adrenergic receptor (Homo sapiens) (UniProt P08913); experiment: Agonist activity at human alpha2A adrenergic receptor expressed in Chem-1 cells at 10 uM by fluorimetric method relative to control; type: cell-based
T2 sequence (whole entry): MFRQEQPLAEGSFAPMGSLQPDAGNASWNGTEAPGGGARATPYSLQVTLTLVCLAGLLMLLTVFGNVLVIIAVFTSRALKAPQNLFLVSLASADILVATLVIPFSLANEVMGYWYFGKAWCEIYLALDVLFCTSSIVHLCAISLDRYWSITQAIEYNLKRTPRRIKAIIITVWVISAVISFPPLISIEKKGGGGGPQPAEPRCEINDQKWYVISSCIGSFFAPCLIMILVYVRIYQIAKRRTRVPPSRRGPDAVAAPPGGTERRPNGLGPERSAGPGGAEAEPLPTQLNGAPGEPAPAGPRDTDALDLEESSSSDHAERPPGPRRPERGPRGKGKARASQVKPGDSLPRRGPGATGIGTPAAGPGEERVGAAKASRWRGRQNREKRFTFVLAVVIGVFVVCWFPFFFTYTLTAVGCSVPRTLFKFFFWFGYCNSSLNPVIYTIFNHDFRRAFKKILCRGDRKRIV

[16] = biological target: Beta-1 adrenergic receptor (Homo sapiens) (UniProt P08588); experiment: Agonist activity at human beta1 adrenergic receptor expressed in HEK293 cells at 10 uM after 30 mins HTRF assay relative to control; type: cell-based
Sequence of Beta-1 adrenergic receptor (Homo sapiens) (P08588 whole entry, looked up): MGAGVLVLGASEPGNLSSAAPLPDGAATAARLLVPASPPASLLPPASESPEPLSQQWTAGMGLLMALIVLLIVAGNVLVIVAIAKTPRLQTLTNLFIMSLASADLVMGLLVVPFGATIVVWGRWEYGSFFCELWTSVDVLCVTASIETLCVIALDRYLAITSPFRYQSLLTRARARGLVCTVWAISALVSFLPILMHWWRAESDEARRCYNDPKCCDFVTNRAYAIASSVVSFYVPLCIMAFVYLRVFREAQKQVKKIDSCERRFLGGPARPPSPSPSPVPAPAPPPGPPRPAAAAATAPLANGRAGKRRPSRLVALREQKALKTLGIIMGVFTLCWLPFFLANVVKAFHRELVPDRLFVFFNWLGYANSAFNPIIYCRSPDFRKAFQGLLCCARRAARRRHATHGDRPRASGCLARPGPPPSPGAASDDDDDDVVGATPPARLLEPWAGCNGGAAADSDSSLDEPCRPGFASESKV

[17] = biological target: D(2) dopamine receptor (Homo sapiens) (UniProt P14416); experiment: Agonist activity at human Dopamine D2L receptor expressed in CHO-K1 cells at 10 uM by Fluorimetric analysis relative to control; type: cell-based
Sequence of D(2) dopamine receptor (Homo sapiens) (P14416 whole entry): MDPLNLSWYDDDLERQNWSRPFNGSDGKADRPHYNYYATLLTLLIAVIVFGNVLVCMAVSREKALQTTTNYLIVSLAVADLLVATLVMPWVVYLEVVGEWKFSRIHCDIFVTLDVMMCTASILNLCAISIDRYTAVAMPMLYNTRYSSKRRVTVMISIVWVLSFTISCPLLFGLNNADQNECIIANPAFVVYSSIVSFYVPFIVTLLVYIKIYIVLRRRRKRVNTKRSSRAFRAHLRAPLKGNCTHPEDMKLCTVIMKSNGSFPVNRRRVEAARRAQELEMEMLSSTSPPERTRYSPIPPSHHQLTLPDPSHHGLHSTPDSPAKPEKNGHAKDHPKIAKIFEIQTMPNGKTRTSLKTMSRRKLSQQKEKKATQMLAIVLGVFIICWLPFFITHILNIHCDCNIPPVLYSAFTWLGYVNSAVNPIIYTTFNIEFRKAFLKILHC

[18] = biological target: Melanocortin receptor 4 (Homo sapiens) (UniProt P32245); experiment: Antagonist activity at human MC4 receptor expressed in CHO-K1 cells at 10 uM after 30 mins by HTRF assay relative to control; type: cell-based; set-up: scale not given: the % may be the effect or the level left
Sequence of Melanocortin receptor 4 (Homo sapiens) (P32245 whole entry): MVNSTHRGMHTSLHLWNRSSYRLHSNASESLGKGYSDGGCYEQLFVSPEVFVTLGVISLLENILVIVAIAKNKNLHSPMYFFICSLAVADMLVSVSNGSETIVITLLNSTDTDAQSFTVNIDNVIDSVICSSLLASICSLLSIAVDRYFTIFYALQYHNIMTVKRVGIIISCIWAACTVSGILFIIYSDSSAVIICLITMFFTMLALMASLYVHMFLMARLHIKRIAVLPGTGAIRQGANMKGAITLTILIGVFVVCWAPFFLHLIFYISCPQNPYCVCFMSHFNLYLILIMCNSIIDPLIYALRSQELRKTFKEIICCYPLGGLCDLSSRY

[19] = biological target: Motilin receptor (Homo sapiens) (UniProt O43193); experiment: Agonist activity at human Motilin receptor expressed in CHO-K1 cells at 10 uM by fluorimetric method relative to control; type: cell-based
[20] = biological target: Muscarinic acetylcholine receptor M4 (Homo sapiens) (UniProt P08173); experiment: Agonist activity at human muscarinic M4 receptor expressed in CHO-K1 cells at 10 uM after 10 mins by HTRF method relative to control; type: cell-based
Sequence of Muscarinic acetylcholine receptor M4 (Homo sapiens) (P08173 whole entry): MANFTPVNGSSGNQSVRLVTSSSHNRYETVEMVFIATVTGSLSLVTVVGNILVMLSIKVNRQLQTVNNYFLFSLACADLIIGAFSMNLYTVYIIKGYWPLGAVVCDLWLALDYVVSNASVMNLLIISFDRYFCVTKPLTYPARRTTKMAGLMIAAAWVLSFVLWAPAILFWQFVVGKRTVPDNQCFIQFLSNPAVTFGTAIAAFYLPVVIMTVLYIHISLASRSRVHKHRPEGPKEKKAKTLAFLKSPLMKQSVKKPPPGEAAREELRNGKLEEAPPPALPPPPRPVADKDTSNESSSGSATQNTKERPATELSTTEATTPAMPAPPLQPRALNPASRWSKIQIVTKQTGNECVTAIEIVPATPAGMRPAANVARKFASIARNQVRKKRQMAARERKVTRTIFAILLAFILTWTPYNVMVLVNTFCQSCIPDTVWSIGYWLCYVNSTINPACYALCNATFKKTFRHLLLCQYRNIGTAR

[21] = biological target: Substance-P receptor (Homo sapiens) (UniProt P25103); experiment: Antagonist activity at human NK1 receptor expressed in U373 MG cells at 10 uM by fluorimetric method relative to control; type: cell-based; set-up: scale not given: the % may be the effect or the level left; conditions: U-373MG ATCC
Sequence of Substance-P receptor (Homo sapiens) (P25103 whole entry): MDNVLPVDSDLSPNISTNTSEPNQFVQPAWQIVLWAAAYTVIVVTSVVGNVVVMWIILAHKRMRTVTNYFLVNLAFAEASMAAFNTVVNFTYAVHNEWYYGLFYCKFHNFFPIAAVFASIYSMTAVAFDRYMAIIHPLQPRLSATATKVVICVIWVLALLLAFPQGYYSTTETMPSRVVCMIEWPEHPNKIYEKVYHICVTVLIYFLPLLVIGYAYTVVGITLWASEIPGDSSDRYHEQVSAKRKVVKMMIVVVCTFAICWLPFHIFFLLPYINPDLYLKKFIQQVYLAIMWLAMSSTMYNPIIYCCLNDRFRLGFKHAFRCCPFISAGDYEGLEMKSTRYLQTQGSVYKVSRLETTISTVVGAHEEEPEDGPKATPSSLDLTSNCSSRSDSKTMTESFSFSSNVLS

[22] = biological target: P2Y purinoceptor 2 (Homo sapiens) (UniProt P41231); experiment: Antagonist activity at human P2Y2 receptor expressed in human 1321N1 cells at 10 uM by fluorimetric method relative to control; type: cell-based; set-up: scale not given: the % may be the effect or the level left
Sequence of P2Y purinoceptor 2 (Homo sapiens) (P41231 whole entry): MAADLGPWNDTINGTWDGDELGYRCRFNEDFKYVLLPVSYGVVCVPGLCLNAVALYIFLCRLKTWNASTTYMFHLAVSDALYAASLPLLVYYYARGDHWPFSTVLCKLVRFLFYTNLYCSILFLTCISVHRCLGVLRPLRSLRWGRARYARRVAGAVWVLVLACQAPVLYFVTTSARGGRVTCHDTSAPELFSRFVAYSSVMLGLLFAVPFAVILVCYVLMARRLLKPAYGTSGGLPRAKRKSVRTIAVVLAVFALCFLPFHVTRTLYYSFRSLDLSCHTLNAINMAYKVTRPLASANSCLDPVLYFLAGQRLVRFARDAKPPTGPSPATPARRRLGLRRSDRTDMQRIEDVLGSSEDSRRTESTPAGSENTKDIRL

[23] = biological target: 5-hydroxytryptamine receptor 2B (Homo sapiens) (UniProt P41595); experiment: Agonist activity at human 5-HT2B receptor expressed in CHO-K1 cells at 10 uM after 30 mins by HTRF assay relative to control; type: cell-based
[24] = biological target: 5-hydroxytryptamine receptor 6 (Homo sapiens) (UniProt P50406); experiment: Antagonist activity at human 5-HT6 receptor expressed in CHO-K1 cells at 10 uM after 30 mins by HTRF assay relative to control; type: cell-based; set-up: scale not given: the % may be the effect or the level left
Sequence of 5-hydroxytryptamine receptor 6 (Homo sapiens) (P50406 whole entry): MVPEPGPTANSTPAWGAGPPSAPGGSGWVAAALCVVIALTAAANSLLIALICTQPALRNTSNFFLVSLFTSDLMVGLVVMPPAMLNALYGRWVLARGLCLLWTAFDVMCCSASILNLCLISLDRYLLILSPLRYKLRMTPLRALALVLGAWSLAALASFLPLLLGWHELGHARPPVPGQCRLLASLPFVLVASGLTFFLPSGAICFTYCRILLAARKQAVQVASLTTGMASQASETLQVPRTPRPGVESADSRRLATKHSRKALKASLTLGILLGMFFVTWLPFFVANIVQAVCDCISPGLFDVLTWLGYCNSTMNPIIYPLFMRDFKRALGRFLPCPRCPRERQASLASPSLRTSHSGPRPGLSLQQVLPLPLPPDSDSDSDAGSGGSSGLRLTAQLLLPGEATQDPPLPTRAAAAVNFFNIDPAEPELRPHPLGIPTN

[25] = Plasma concentration in female rat at 12.5 mg/kg, po administered once daily for 8 days and measured on day 8; type: ADME, organism-based
[26] = tested on: Rattus norvegicus; experiment: Downregulation of estradiol level in proestrus staged-female rat serum at 12.5 mg/kg, po administered once daily for 8 days and measured by radioimmunoassay method (reference value: 144 pmol/L); type: functional

Compound | IC50 [1] [µM] | Fh at 1 µM [2] [%] | fraction unbound [3] | solubility at 24 h [4] [µg/mL] | efflux ratio at 2 h, 2 µM [5] | Fh at 1 µM [6] [%] | IC50 [7] [µM] | IC50 [8] [µM] | AUC/dose [9] [kg·h/L] | half-life [10] [h] | Tmax [11] [h] | half-life [12] [h] | Activity [13] [%] | Activity [14] [%] | Activity [15] [%] | Activity [16] [%] | Activity [17] [%] | Activity [18] [%] | Activity [19] [%] | Activity [20] [%] | further results
O=C(Nc1ccc(Oc2ccc(F)cc2)cc1)N1CCc2ncccc2[C@@H]1c1ccc(Cl)cc1 | 0.096 | 85 | 0.002 | 3.5 (≈ 7.38 µM) | 1.3 | 94 | 4.4 | > 20 | 9.4 | 11 | 24 | 12 | < 70 | < 70 | < 70 | < 70 | < 70 | < 70 | < 70 | < 70 | Activity [21]: < 70%; Activity [22]: < 70%; Activity [23]: < 70%; Activity [24]: < 70%; concentration at 192 h [25]: 7 µM; Activity [26]: 57 pmol/L
O=C(Nc1cnc(Oc2ccc(F)cc2)nc1)N1CCc2ncccc2[C@@H]1c1ccc(F)cc1 [BAY-899] | 0.185 | 89 | 0.017 | 39 (≈ 84.9 µM) | 1.1 | 95 | 9.9 | > 20 | 2.5 | 31 | 8 | 33 | < 70 | < 70 | < 70 | < 70 | < 70 | < 70 | < 70 | < 70 | Activity [21]: < 70%; Activity [22]: < 70%; Activity [23]: < 70%; Activity [24]: < 70%; concentration at 192 h [25]: 34 µM; Activity [26]: 54 pmol/L
